Measurements published in patent US20220144812A1, “QUINOLINE DERIVATIVES AND THEIR USE FOR THE TREATMENT OF CANCER” (Epizyme, Inc., priority 2019, published 2022).
Where two headings read alike, the source gives them in different places.

Columns and labels:
[1] = system: H3K18Ac in HB-CLS-2 cells; assay: H3K18AC in-cell western (ICW) assay; format: cell-based; details: read-out: CREBBP ICW IC50
Outline: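 In-cell western: after methanol fixation, blocking, overnight 4° C anti-H3K18Ac staining, then 800CW secondary plus DRAQ5 for DNA content, integrated intensities were scanned at 800 and 700 nm. Before this, compound exposure lasted 2 hr at 37° C in HB-CLS-2 cells plated 16–24 hours earlier. Values expressed as IC50 (μM).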

647V cells = assay: High throughput proliferation (HTP) assay; format: cell-based; details: Homo sapiens, 647-V, read-out: CREBBP HTP IC50
Outline: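 Proliferation IC50 (micromolar) derived from a 7-day CellTiter-Glo viable-cell readout in 647V cells exposed, in triplicate, to rising compound concentrations; cells grown in DMEM plus 15% heat-inactivated FBS at 37° C under 5% CO2.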

CREBBP (1084-1701) = target: T1, CREBBP (1084-1701) (Homo sapiens, UniProt Q92793); assay: Biochemical assay for CREBBP (1084-1701), SAMDI; details: read-out: CREBBP Biochemistry IC50
T1 construct: measured in the following biochemical assay using CREBBP (1084-1701); purchased
Outline: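 Acetyltransferase activity measured by SAMDI mass spectrometry after capture on biochip. Enzyme sat with compound 30 min at RT before acetyl-CoA and biotinylated H3 11-25 (K14R, K23R) peptide were added for 30 min at RT. Formic acid quench, bicarbonate neutralisation; IC50 values reported.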

EP300 (P300(1048-1664)) = target: T2, EP300 (P300(1048-1664)) (Homo sapiens, UniProt Q09472); assay: Biochemical assay for EP300, SAMDI; details: read-out: EP300 Biochemistry IC50
T2 construct: P300(1048-1664)
T2 sequence (Q09472 1048-1664): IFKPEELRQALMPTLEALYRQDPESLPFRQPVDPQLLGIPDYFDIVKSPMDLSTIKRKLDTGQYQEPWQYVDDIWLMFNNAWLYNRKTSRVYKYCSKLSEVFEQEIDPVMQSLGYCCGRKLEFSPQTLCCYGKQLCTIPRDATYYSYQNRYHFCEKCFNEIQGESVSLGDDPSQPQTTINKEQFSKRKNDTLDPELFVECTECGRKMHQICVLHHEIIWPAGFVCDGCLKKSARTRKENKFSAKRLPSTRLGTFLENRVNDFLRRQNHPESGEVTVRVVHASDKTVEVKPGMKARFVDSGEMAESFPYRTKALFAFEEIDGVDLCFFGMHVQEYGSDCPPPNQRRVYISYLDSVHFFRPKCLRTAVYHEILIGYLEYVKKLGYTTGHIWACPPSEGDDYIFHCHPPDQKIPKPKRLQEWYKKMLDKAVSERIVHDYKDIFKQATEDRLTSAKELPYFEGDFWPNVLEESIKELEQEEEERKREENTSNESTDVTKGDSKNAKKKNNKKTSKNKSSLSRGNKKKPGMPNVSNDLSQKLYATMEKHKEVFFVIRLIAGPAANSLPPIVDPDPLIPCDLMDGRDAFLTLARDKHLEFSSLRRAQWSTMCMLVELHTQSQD
Description: The following example describes materials and methods relating to a biochemical assay for EP300. IC50 values (micromolar (μM)) are summarized in Table 1, Table 2, and Table 3 under the column labeled: “EP300 Biochemistry IC50 (micromolar).”

[2] = H3K18Ac in-cell western, HB-CLS-2 cells
[3] = high throughput proliferation, 647V cells

T1 sequence (Q92793 1084-1701): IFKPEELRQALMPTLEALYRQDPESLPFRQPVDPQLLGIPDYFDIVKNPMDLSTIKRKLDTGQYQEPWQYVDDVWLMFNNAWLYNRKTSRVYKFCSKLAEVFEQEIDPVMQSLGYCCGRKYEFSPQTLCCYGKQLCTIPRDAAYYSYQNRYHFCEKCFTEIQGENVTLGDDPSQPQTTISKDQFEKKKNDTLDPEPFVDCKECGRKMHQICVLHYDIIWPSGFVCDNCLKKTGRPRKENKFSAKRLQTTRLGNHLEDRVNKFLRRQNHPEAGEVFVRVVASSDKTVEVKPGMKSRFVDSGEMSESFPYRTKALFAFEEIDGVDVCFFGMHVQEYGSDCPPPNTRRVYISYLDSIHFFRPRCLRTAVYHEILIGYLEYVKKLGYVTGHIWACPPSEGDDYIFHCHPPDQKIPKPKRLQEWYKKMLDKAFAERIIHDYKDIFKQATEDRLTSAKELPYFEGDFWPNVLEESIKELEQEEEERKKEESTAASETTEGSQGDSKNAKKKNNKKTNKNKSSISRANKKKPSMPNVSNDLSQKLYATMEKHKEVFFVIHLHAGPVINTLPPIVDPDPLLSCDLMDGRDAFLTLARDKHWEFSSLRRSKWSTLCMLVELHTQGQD

| IC50 ([1]; H3K18Ac in-cell western) [nM] | IC50 (CREBBP (1084-1701); SAMDI) [nM] | IC50 (EP300 (P300(1048-1664)); EP300, SAMDI) [nM] | IC50 [1, 2] [nM] | IC50 ([1]; 2 h, H3K18Ac in HB-CLS-2 cells, 2 hrs compound incubation) [nM] | IC50 (CREBBP (1084-1701); Peptide #233, Acetyl-CoA, SAMDI mass spectrometry) [nM] | IC50 (EP300 (P300(1048-1664)); P300(1048-1664), Peptide #233, Ac-CoA, SAMDI mass spectrometry) [nM] | Structure (SMILES) | IC50 (647V cells; high throughput proliferation) [nM] | IC50 (647V cells; [3]) [nM] | IC50 (647V cells; 168 h, 647V cells, day 7, CellTiter-Glo) [nM] |
| --- | --- | --- | --- | --- | --- | --- | --- | --- | --- | --- |
| 2800 | 4800 | 1500 |  |  |  |  | CCn1ncc(CN(C)C(=O)c2cc(-c3ccc(NCCN(C)C(=O)OC(C)(C)C)cn3)nc3ccc(Cl)cc23)c1C [Compound 113] | 6700 |  |  |
| 7240 | 19400 | 23300 |  |  |  |  | CCc1nn(C)c(CN(C)C(=O)c2cc(-c3ccc(NCCNC)c(C)n3)nc3ccc(Cl)cc23)c1C [Compound 586] | 2130 |  |  |
| 16000 | 54000 | 44000 |  |  |  |  | CCn1ncc(CN(C)C(=O)c2nc(-c3cc(C(=O)NCCN4CCCC4)n(Cc4ccc(OC)cc4)n3)nc3ccc(Cl)cc23)c1C [Compound 177] | 3400 |  |  |
| 13000 | 8400 | 15000 |  |  |  |  | CCn1ncc(CN(C)C(=O)c2nc(-c3cc(C(=O)NCCN4CCCC4)on3)nc3ccc(Cl)cc23)c1C [Compound 169] | 6700 |  |  |
| 242 | 142 | 412 |  |  |  |  | CCc1ncc(CN(C)C(=O)c2cc(-c3ccc(NCCNC)c(C)n3)nc3ccc(Cl)cc23)o1 [Compound 560] | 448 |  |  |
|  | 50000 | 50000 | 20000 |  |  |  | CCn1ncc(CN(C)C(=O)c2nc(-c3cc(Cl)cc(C(=O)NC)c3)nc3ccc(Cl)cc23)c1C [Compound 392] |  | 20000 |  |
| 1400 | 2570 | 993 |  |  |  |  | CCn1ncc(CN(C)C(=O)c2nc(-c3cc(C)c4c(c3)NC(=O)C4)nc3ccc(Cl)cc23)c1C [Compound 463] | 1510 |  |  |
| 1200 | 670 | 2100 |  |  |  |  | CCn1ncc(CN(C)C(=O)c2nc(-c3ccc(NCCNC)c(C)n3)nc3ccc(Cl)cc23)c1C [Compound 79] | 850 |  |  |
|  | 74 | 23 | 230 |  |  |  | CCn1ncc(CN(C)C(=O)c2cc(-c3cc(NCCNC)cc(C)n3)nc3ccc(Cl)cc23)c1C [Compound 409] |  | 54 |  |
| 230 | 43.9 | 28.3 |  |  |  |  | CCn1ncc(CN(C)C(=O)c2nc(-c3cc(C(F)(F)F)c4[nH]nc(NC)c4c3)nc3ccc(Cl)cc23)c1C [Compound 623] | 711 |  |  |
| 59.9 | 23.8 | 14.5 |  |  |  |  | CCn1ncc(CN(C)C(=O)c2cc(-c3ccc(NCCN(C)C)c(C(F)(F)F)n3)nc3ccc(Cl)cc23)c1C [Compound 619] | 32.5 |  |  |
| 2600 | 6400 | 4700 |  |  |  |  | CCn1ncc(CN(C)C(=O)c2nc(-c3ccc(OCCO)c(F)c3)nc3ccc(Cl)cc23)c1C [Compound 111] | 2400 |  |  |
| 937 | 167 | 59.9 |  |  |  |  | CCn1ncc(CN(C)C(=O)c2cc(-c3ccc(OCC(O)CNC)c(C)n3)nc3ccc(COC)cc23)c1C (stereo not shown) [Compound 496] | 689 |  |  |
| 7200 | 7500 | 11000 |  |  |  |  | CCn1ncc(CN(C)C(=O)c2nc(-c3ccc(OCCN(C)C(=O)OC(C)(C)C)c(OC)c3)nc3ccc(Cl)cc23)c1C [Compound 148] | 3900 |  |  |
| 4400 | 12000 | 15000 |  |  |  |  | CCn1ncc(CN(C)C(=O)c2nc(-c3ccc(OCCCNC(=O)OC(C)(C)C)c(OC)c3)nc3ccc(Cl)cc23)c1C [Compound 127] | 3500 |  |  |
|  |  |  |  | 420 | 98.7 | 34.4 | CCc1ncc(CN(C)C(=O)c2cc(-c3ccc(NCCN(C)C)c(C)n3)nc3ccc(COC)cc23)n1C [Compound 637] |  |  | 295 |
| 10000 | 20000 | 7700 |  |  |  |  | CCn1ncc(CN(C)C(=O)c2nc(N3CCc4[nH]c(C)nc4C3)nc3ccc(Cl)cc23)c1C [Compound 159] | 10000 |  |  |

| IC50 ([1]; H3K18Ac in-cell western) [nM] | IC50 (CREBBP (1084-1701); SAMDI) [nM] | IC50 (EP300 (P300(1048-1664)); EP300, SAMDI) [nM] | IC50 [1, 2] [nM] | IC50 ([1]; 2 h, H3K18Ac in HB-CLS-2 cells, 2 hrs compound incubation) [nM] | IC50 (CREBBP (1084-1701); Peptide #233, Acetyl-CoA, SAMDI mass spectrometry) [nM] | IC50 (EP300 (P300(1048-1664)); P300(1048-1664), Peptide #233, Ac-CoA, SAMDI mass spectrometry) [nM] | Structure (SMILES) | IC50 (647V cells; high throughput proliferation) [nM] | IC50 (647V cells; [3]) [nM] | IC50 (647V cells; 168 h, 647V cells, day 7, CellTiter-Glo) [nM] |
| --- | --- | --- | --- | --- | --- | --- | --- | --- | --- | --- |
| 520 | 570 | 690 |  |  |  |  | CCn1ncc(CN(C)C(=O)c2nc(-c3cc4nc[nH]c4cc3OC)nc3ccc(Cl)cc23)c1C [Compound 51] | 520 |  |  |
| 371 | 25.3 | 28.5 |  |  |  |  | CCc1ncc(CN(C)C(=O)c2nc(-c3cc(N)c4cn[nH]c4c3)nc3ccc(COC)cc23)n1C [Compound 500] | 409 |  |  |
| 260 | 54 | 142 |  |  |  |  | CCn1ncc(CN(C)C(=O)c2cc(-c3cnc(NCCNC)c(C)n3)nc3ccc(Cl)cc23)c1C [Compound 525] | 313 |  |  |
|  | 24000 | 22000 | 8200 |  |  |  | CCn1ncc(CN(C)C(=O)c2nc(-c3cc(C)nc(CNC)c3)nc3ccc(Cl)cc23)c1C [Compound 398] |  | 4800 |  |
| 160 | 12.3 | 4.1 |  |  |  |  | CCn1ncc(CN(C)C(=O)c2nc(-c3cc(C)cc(NC4CNC4)c3)nc3ccc(Cl)cc23)c1C [Compound 444] | 58.2 |  |  |
| 11000 | 17000 | 6200 |  |  |  |  | CCn1ncc(CN(C)C(=O)c2nc(N3CCc4cn[nH]c4C3)nc3ccc(Cl)cc23)c1C [Compound 161] | 11000 |  |  |
| 137 | 14.9 | 3.5 |  |  |  |  | CCn1ncc(CN(C)C(=O)c2nc(-c3cc(N)c4cn[nH]c4c3)nc3ccc(COC)cc23)c1C [Compound 499] | 183 |  |  |
| 170 | 23 | 10 |  |  |  |  | CCn1ncc(CN(C)C(=O)c2nc(-c3cc(C(=O)NC)n(C)n3)nc3ccc(Cl)cc23)c1C [Compound 18] | 220 |  |  |
| 20000 | ≥ 50000 | ≥ 50000 |  |  |  |  | CCn1ncc(CN(C)C(=O)c2cc(-c3nn(C)c(C(=O)NC)c3C)nc3ccc(Cl)cc23)c1C [Compound 556] | 6290 |  |  |
| 74.1 | 6.22 | 2.7 |  |  |  |  | CCc1ncc(CN(C)C(=O)c2nc(-c3cc(Cl)c4[nH]cnc4c3)nc3ccc(COC)cc23)n1C [Compound 523] | 34.7 |  |  |
| 2530 | 10600 | 4850 |  |  |  |  | CCn1ncc(CN(C)C(=O)c2cc(-c3ccc(N(C)C)nn3)nc3ccc(Cl)cc23)c1C [Compound 502] | 9010 |  |  |
| 14000 | 8500 | 3600 |  |  |  |  | CCn1ncc(CN(C)C(=O)c2nc(-c3ccc(-c4ccn[nH]4)cc3)nc3ccc(Cl)cc23)c1C [Compound 171] | 7800 |  |  |
| 630 | 280 | 580 |  |  |  |  | CCn1ncc(CN(C)C(=O)c2nc(-c3ccc(OCCNC(C)=O)cc3Cl)nc3ccc(Cl)cc23)c1C [Compound 56] | 520 |  |  |
| 1300 | 820 | 2500 |  |  |  |  | CCn1ncc(CN(C)C(=O)c2nc(-c3ccc(OCCCNC)c(OC)c3)nc3ccc(Cl)cc23)c1C [Compound 84] | 850 |  |  |
| 20000 | ≥ 50000 | ≥ 50000 |  |  |  |  | CNCCNc1ccc(-c2cc(C(=O)N(C)Cc3cn[nH]c3C)c3cc(Cl)ccc3n2)nc1C [Compound 564] | 9530 |  |  |
| 4870 | 364 | 1480 |  |  |  |  | CCn1ncc(CN(C(=O)c2cc(-c3ccc(NCCNC)c(C)n3)nc3ccc(Cl)cc23)C(C)C)c1C [Compound 465] | 1930 |  |  |
| 14300 | 48300 | 35500 |  |  |  |  | CCn1ncc(CN(C)C(=O)c2nc(-c3nn(C)c(C(=O)NC)c3Cl)nc3ccc(Cl)cc23)c1C [Compound 448] | 12600 |  |  |
